{"source": "paper PMC10745422", "about": "“Absorption, Distribution, Metabolism, and Excretion of [^14C]BS1801, a Selenium-Containing Drug Candidate, in Rats” (Molecules, 2023)", "key": {"[1]": {"tested_on": "albumin", "set-up": "method as in PMID 17363345, PMID 7945407", "conditions": "cited from earlier work"}, "[2]": {"assay": "Biliary excretion of radioactivity in bile duct cannulated (BDC) rats", "format": "in vivo, Sprague–Dawley (SD, Rattus norvegicus) rats", "conditions": "BDC SD rats, single intragastric 100 mg/kg, within 72 h", "experimental": "(§1) BS1801 and [^14C]BS1801 were prepared in 0.5% sodium carboxymethyl cellulose solution at a target concentration of 10 mg/mL (10 μCi/mL). The radioactivity of [^14C]BS1801 was measured using a liquid scintillation counter (LSC) (Hidex, Turku, Finland) before and after administration, and a single dose of 10 mL/kg was administered orally.\nBile duct cannulation (BDC) was performed in 3 male and 3 female SD rats before drug administration. After the operation, the wounds were wiped with iodophor for 2 days, and painkillers were administered appropriately. The state of the rats was observed daily, and the drug was administered only when no abnormality was observed within 2 days. Bile was collected before and 0–4, 4–8, 8–24, 24–48, and 48–72 h after dosing. The weights of the bile samples were recorded, and the samples were stored at −20 °C until testing.\n(§2) Samples of urine (100 μL), bile (30 μL), and plasma (100 μL from the tissue distribution study) were weighed and added to 15 mL scintillation solution. Among them, urine and bile samples were duplicated, and plasma samples were in singlicate. The radioactivity was measured directly via LSC."}, "[3]": {"assay": "Mass balance: excretion of radioactivity in urine and feces after a single oral dose of [^14C]BS1801", "format": "in vivo, Sprague–Dawley (SD, Rattus norvegicus) rats", "experimental": "as §1\nThree male and three female SD rats were housed individually in metabolic cages. Urine samples were collected from each rat at predose and 0–8, 8–24, 24–48, 48–72, 72–96, 96–120, 120–144, and 144–168 h postdose. When each urine sample was collected, the metabolic cage was flushed with a small amount of water for 0–72 h and methanol/water (50:50, v:v) for 72–168 h, and the flushing solution was added to the urine sample for the corresponding period. Fecal samples were also collected at predose and 0–24, 24–48, 48–72, 72–96, 96–120, 120–144, and 144–168 h postdose. Urine and fecal samples were weighed and recorded during each collection period. All samples were stored at −20 °C for testing.\nas §2\n(§3) Approximately three times the weight of methanol/water (50:50, v:v) was added to each fecal sample and homogenized with a homogenizer (SKGZ, Shanghai Biheng, Shanghai, China). Approximately 0.2~0.3 g of the fecal homogenate was weighed in a combustion boat, and dried overnight. Blood samples (100 μL) and tissue samples (approximately 0.1 g) were weighed into burning boats. After the samples were completely dried, they were combusted using a Biological Sample Oxidizer (OTCS-11/1, Shanghai Yixing, Shanghai, China). The ^14CO2 generated was captured with 15 mL alkaline scintillation solution; then, the radioactivity was measured using LSC."}, "[4]": {"tested_on": "human serum albumin", "set-up": "method as in PMID 35149420", "conditions": "covalent binding, unstable; cited from earlier work"}, "[5]": {"assay": "Metabolite radio-profiling and identification in pooled plasma, urine, feces and bile (UHPLC-β-RAM/UV/QE MS)", "format": "in vivo, Sprague–Dawley (SD, Rattus norvegicus) rats", "experimental": "Three SD rats of each sex were used to obtain plasma samples. […] All samples were stored at −20 °C for analysis.\nThen, 3 mL of methanol/water (50:50, v:v) was slowly added to the pooled plasma (1 mL), followed by vortexing for 1 min and sonication for 10 min twice. Then, the upper extract and the lower precipitate were separated by centrifugation (5000 rpm, 10 min). The supernatant was transferred to another new centrifuge tube. Then, 1 mL of water was added to the precipitate, vortexed for 1 min, and sonicated for 10 min. Then, 2 mL of methanol/acetonitrile (50:50, v:v) was added to the mixture, two vortexes were performed for 1 min, and the mixture was ultrasonicated for 10 min, followed by centrifugation (5000 rpm, 10 min). The two-times supernatant extracts were combined and dried under a nitrogen stream and finally redissolved with acetonitrile/water (20:80, v:v). The recoveries of extraction and reconstitution processes were measured via LSC.\nThe pooled urine was vortexed and centrifuged (5000 rpm, 10 min). After centrifugation, the supernatant was dried under a nitrogen stream and then redissolved in acetonitrile/water (20:80, v:v).\nThe pooled fecal homogenate (1 g) was extracted by using the same method as for the plasma. The supernatant was then evaporated under a nitrogen stream and redissolved in 300 μL acetonitrile/water (20:80, v:v).\nAn ACQUITY UPLC BEH Pheny column (100 × 2.1 mm, 1.7 μm) with a Phenomenex KrudKatcher Ultra HPLC In-Line Filter guard column (2 µm, Depth Filter × 0.004 in ID) was used to perform metabolite radio-profiling and characterization on the Vanquish UHPLC system, which was combined with a QExactive Plus mass spectrometer (Thermo, Waltham, MA, USA) containing an electrospray ionization (ESI) source. The column temperature was 40 °C, and the flow rate was 0.45 mL/min. The mobile phases contained 5 mM ammonium acetate with 0.1% formic acid in water (A) and acetonitrile (B). […] The mass spectrometer was operated in positive (+ESI) mode with a m/z 100–1500 Da scanning range. The optimized MS parameters were as follows: sheath gas, 35 L/min; auxiliary gas, 10 L/min; capillary temperature, 320 °C; and spray voltage, 3.8 kV. Data acquisition was performed using Xcalibur 4.1 software (Thermo, Waltham, MA, USA), and data analysis was accomplished using Compound Discoverer software 3.3 SP2 (Thermo, Waltham, MA, USA).\nThe extracted plasma, urine, feces, and bile samples were separated via UHPLC and detected using an online/offline radioactivity detector to obtain the corresponding radioactive metabolite profiles. Due to low radioactivity of plasma, the UHPLC eluent was collected using a UHPLC fraction collector (Thermo, Waltham, MA, USA) over time (10 s/well) on Deepwell LumaPlateTM 96-well plates. After evaporation via a vacuum centrifuge concentrator, the radioactivity was determined with an offline Sense Beta detector (1 min/well, Hidex, Turku, Finland). For the urine, feces, and bile samples, the UHPLC eluent was analyzed using an online radioactivity detector β-RAM. Radioactive metabolite profiling was integrated to obtain the radio-chromatogram with Laura 6.0.5.101 software (Lablogic, Sheffield, UK). The percentage of each metabolite in urine, feces, and bile (%dose) and the ratio of metabolites in the plasma (% area under the curve, %AUC) were calculated."}, "[6]": {"assay": "Tissue distribution of radioactivity after a single oral dose of [^14C]BS1801", "format": "in vivo, Long–Evans (LE, Rattus norvegicus) rats", "conditions": "total radioactivity", "experimental": "as §1\nTwenty-four LE rats (12 of each sex) were used for tissue distribution studies. Three male and three female rats were sacrificed through abdominal aortic bleeding at 2, 10, 48, and 96 h after administration. Approximately 1/5 of the blood was stored frozen at −20 °C, and the remaining blood was centrifuged (3500× g, 5 min, 4 °C) to obtain plasma. The brain, heart, lung, liver, stomach wall, spleen, kidney, muscle, pigmented fat, ovary, womb, testis, bladder wall, pancreas, small intestine wall, large intestine wall, eye, pigmented skin, thymus, spinal cord, and marrow were also collected. The tissues were washed with saline, dried, and stored at −20 °C until testing.\nas §2, §3"}, "[7]": {"conditions": "SD rats, single oral 100 mg/kg, 0 to 168 h"}, "[8]": {"conditions": "0–96 h pooled female SD rat urine"}, "[9]": {"conditions": "AUC0–72h pooled female SD rat plasma"}, "[10]": {"conditions": "AUC0–72h pooled male SD rat plasma"}}, "data": [{"smiles": "O=c1c2ccccc2[se]n1CCn1[se]c2ccccc2c1=O", "note": "[BBSKE, 1,2-[bis(1,2-benzisoselenazolone-3 (2H)-ketone)]-ethane]", "values": [{"measurement": "binding rates with albumin", "setting": "[1]", "value": "high"}]}, {"smiles": "O=c1c2ccccc2[se]n1CCCCn1[se]c2ccccc2c1=O", "note": "[BS1801]", "values": [{"measurement": "recovery of radioactivity in bile", "setting": "[2]", "value": 0.58, "unit": "%"}, {"measurement": "absorption in rats (inferred from urine and bile recovery)", "setting": "[3]; SD rats, single oral 100 mg/kg", "value": "not well absorbed"}, {"measurement": "radioactive recovery in either urine or bile", "setting": "[3]; SD rats, single oral 100 mg/kg", "value": "less than 1 % of the dose"}, {"measurement": "mean radioactive recovery in urine and feces", "setting": "[3]; SD rats, single oral 100 mg/kg (100 μCi/kg), 0 to 168 h", "value": 93.39, "unit": "%"}, {"measurement": "cumulative excretion of radioactive substances in feces", "setting": "[3]; [7]", "value": "92.77 % of the dose"}, {"measurement": "cumulative excretion of radioactive substances in urine", "setting": "[3]; [7]", "value": "0.62 % of the dose"}, {"measurement": "mean radioactive recovery in urine and feces", "setting": "[3]; SD rats, single oral 100 mg/kg, within 0–48 h", "value": 91.57, "unit": "%"}, {"measurement": "cumulative excretion of radioactive substances in feces", "setting": "[3]; female SD rats", "value": "93.22 % of the dose"}, {"measurement": "cumulative excretion of radioactive substances in feces", "setting": "[3]; male SD rats", "value": "92.32 % of the dose"}, {"measurement": "binding to human serum albumin", "setting": "[4]", "value": "rapidly and thoroughly"}, {"measurement": "amount in urine", "setting": "[5]; [8]", "value": "not detected"}, {"measurement": "amount in urine", "setting": "[5]; 0–96 h pooled male SD rat urine", "value": "not detected"}, {"measurement": "share of total plasma radioactivity", "setting": "[5]; [9]", "value": "undetected"}, {"measurement": "share of total plasma radioactivity", "setting": "[5]; [10]", "value": "not detected"}, {"measurement": "detection of parent drug in bile", "setting": "[5]; SD rat bile", "value": "not detected"}, {"measurement": "unchanged drug in rat feces", "setting": "[5]; SD rat feces, male and female", "value": "more than 75.00 % of the dose"}, {"measurement": "recovery of radioactivity in the supernatant after protein precipitation of pooled plasma", "setting": "[5]; female SD rats", "value": 91.23, "unit": "%"}, {"measurement": "recovery of radioactivity in the supernatant after protein precipitation of pooled plasma", "setting": "[5]; male SD rats", "value": 105.85, "unit": "%"}, {"measurement": "amount in feces", "setting": "[5]; pooled female SD rat feces (0–48 h)", "value": "81.89 % of the dose"}, {"measurement": "amount in feces", "setting": "[5]; pooled male SD rat feces (0–48 h)", "value": "76.97 % of the dose"}, {"measurement": "ratio of AUC0–96h of brain to that of plasma, rank among analyzed tissues", "setting": "[6]; brain, LE rats", "value": "the lowest"}, {"measurement": "ratio of tissue AUC0–96h to plasma AUC0–96h", "setting": "[6]; eyes, male LE rats", "value": 5.35}, {"measurement": "average ratio of blood AUC0–96h to plasma AUC0–96h", "setting": "[6]; female LE rats", "value": 0.45}, {"measurement": "ratio of tissue AUC0–96h to plasma AUC0–96h", "setting": "[6]; large intestine, female LE rats", "value": 16.82}, {"measurement": "ratio of tissue AUC0–96h to plasma AUC0–96h", "setting": "[6]; large intestine, male LE rats", "value": 7.48}, {"measurement": "ratio of tissue AUC0–96h to plasma AUC0–96h", "setting": "[6]; liver, female LE rats", "value": 6.59}, {"measurement": "ratio of tissue AUC0–96h to plasma AUC0–96h", "setting": "[6]; liver, male LE rats", "value": 11.80}, {"measurement": "average ratio of blood AUC0–96h to plasma AUC0–96h", "setting": "[6]; male LE rats", "value": 0.73}, {"measurement": "ratios of other tissues AUC0–96h to plasma AUC0–96h", "setting": "[6]; other tissues, all rats", "value": "lower than 5.00"}, {"measurement": "ratio of tissue AUC0–96h to plasma AUC0–96h", "setting": "[6]; stomach, male LE rats", "value": 10.60}]}, {"smiles": "C[Se]c1ccccc1C(=O)NCCCCNC(=O)c1ccccc1[Se]C", "note": "[M2]", "values": [{"measurement": "share of total plasma radioactivity", "setting": "[5]; [9]", "value": "81.33 % of the total plasma radioactivity"}, {"measurement": "share of total plasma radioactivity", "setting": "[5]; [10]", "value": "65.41 % of the total radioactivity"}]}, {"smiles": "C[Se]c1ccccc1C(=O)NCCCCN", "note": "[M286]", "values": [{"measurement": "amount in urine", "setting": "[5]; [8]", "value": "0.20 % of the dose"}, {"measurement": "amount in bile", "setting": "[5]; pooled 0–48 h male SD rat bile", "value": "less than 0.1 % of the dose"}]}, {"smiles": "O=c1c2ccccc2[se]n1-c1ccccc1", "note": "[ebselen, 2-phenyl-1,2-benzisoselenazol-3(2H)-one]", "values": [{"measurement": "binding rates with albumin", "setting": "[1]", "value": "high"}]}]}
